Test results: PubChem BioAssay (NCI)
Several values for one entry are separate records, joined by “and”; a condition that tells them apart may be missing. Equal values may be shown once.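 Interpolation was linear, between the two tested concentrations surrounding the appropriate level; five concentrations were tested over 48 hours in 96-well plates. GI50: concentration for 50% inhibition of growth. The concentration for full growth arrest is given as TGI.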 *1 amine or outer side, *2 acyl side, *3 side chain or, on linkers, in order; H or OH if unused. Where a SMILES comes first, the peptide text is derived from it. [ ]: non-standard residue; d: D form. The star is where a group is joined. X12 = NCCCCC(N[*:1])C(=O)CN1CCCC1C(=O)[*:2]; Pentadecanoyl = CCCCCCCCCCCCCCC(=O)*

Columns and labels:
Experiment in all cases: inhibition of tumour cell growth, NCI panel, 48 h
[1] = test system: HCT-15 colon
[2] = test system: MOLT-4 leukemia
[3] = test system: NCI-H23 lung
[4] = test system: OVCAR-8 ovarian
[5] = test system: RXF 393 renal
[6] = test system: SR leukemia
[7] = test system: SW-620 colon
[8] = test system: UACC-257 melanoma
[9] = test system: UACC-62 melanoma
[10] = test system: OVCAR-3 ovarian
[11] = test system: MDA-N

O=c1cc(-c2ccccc2)[nH]c2c(F)ccc(F)c12
TGI [1]: > 100 µM | TGI [2]: > 100 µM | TGI [3]: > 100 µM | TGI [4]: > 100 µM | TGI [5]: > 100 µM | TGI [6]: 90.3 µM | TGI [7]: > 100 µM | TGI [8]: > 100 µM | TGI [9]: > 100 µM

O=C(CSCC(=O)N/N=C\c1cccc(Br)c1)N/N=C\c1cccc(Br)c1
TGI [1]: 86.5 µM | TGI [2]: 73 µM | TGI [3]: 30.1 µM | TGI [10]: 26.6 µM | TGI [4]: 35.4 µM | TGI [5]: 67.9 µM | TGI [6]: 66.1 µM | TGI [7]: 77.4 µM | TGI [8]: 33.2 µM | TGI [9]: 29.4 µM

CCC(C)Cn1c(C)nc2c1C(=O)c1ccccc1C2=O (stereo not drawn)
TGI [1]: > 100 µM | TGI [2]: > 100 µM | TGI [3]: 48.4 µM | TGI [10]: 66.7 µM | TGI [4]: > 100 µM | TGI [5]: > 100 µM | TGI [6]: > 100 µM | TGI [7]: > 100 µM | TGI [8]: 62.3 µM | TGI [9]: 27.5 µM

CC1[C@@H]2C[C@@H]3O[C@@]34[C@H]3CCC5Cc6nc7c(nc6C[C@@]5(C)C3(O)CC(=O)[C@@]24CO[C@]12OC(C)(C)CC2O)CC1CC[C@@H]2C3=C[C@H]4O[C@@]5(O[C@@](C)(CO)C[C@@H]5O)C(C)[C@@]4(O)[C@]3(C)[C@@H](O)CC2[C@]1(C)C7 (stereo partly drawn)
TGI [1]: 2.66 µM | TGI [3]: 0.467 µM | TGI [10]: > 3.52 µM | TGI [4]: > 3.52 µM | TGI [5]: 0.0296 µM | TGI [7]: 0.49 µM | TGI [8]: > 3.52 µM | TGI [9]: 0.104 µM

[O-][n+]1cc(SCc2ccccc2)ncc1SCc1ccccc1
TGI [1]: > 10 µM | TGI [2]: > 10 µM | TGI [3]: > 10 µM | TGI [10]: > 10 µM | TGI [4]: > 10 µM | TGI [5]: > 10 µM | TGI [6]: > 10 µM | TGI [8]: > 10 µM | TGI [9]: > 10 µM

CN(C)CC(C)(C)C(=O)/C=C/c1ccccc1
TGI [1]: 26.9 µM | TGI [2]: 60.4 µM | TGI [3]: 45.5 µM | TGI [10]: 40.5 µM | TGI [4]: > 100 µM | TGI [5]: 24.5 µM | TGI [7]: 31.1 µM | TGI [8]: 27.2 µM | TGI [9]: 26.5 µM

COc1cccc2c1C(=O)c1c(O)c3c(c(O)c1C2=O)C[C@@](O)(C(=O)CO)CC3OC1CC(NCCCCC(OC(C)=O)OC(C)=O)C(O)C(C)O1 (stereo partly drawn)
TGI [1]: > 1 µM | GI50 [2]: 0.000378 µM | TGI [2]: 0.00909 µM and 0.00236 µM | GI50 [3]: 0.000808 µM | TGI [3]: 0.00237 µM | GI50 [4]: 0.00179 µM | TGI [4]: 0.0614 µM | GI50 [5]: 0.00269 µM | TGI [5]: 0.00356 µM and 0.00642 µM | TGI [6]: 0.0027 µM | GI50 [7]: 0.00175 µM | TGI [7]: > 1 µM | GI50 [8]: 0.00286 µM | TGI [8]: 0.00798 µM | GI50 [9]: 0.000655 µM | TGI [9]: 0.00374 µM and 0.00228 µM

COc1ccc(OC)c([N+](=O)[O-])c1-c1nc2sc(C)cn2c1/C=N/N=C(N)N
TGI [1]: > 100 µM | TGI [3]: 66 µM | TGI [10]: 85.6 µM | TGI [4]: 76.8 µM | TGI [5]: 76.1 µM | TGI [7]: > 100 µM | TGI [8]: 47 µM | TGI [9]: 69.3 µM

CN(C)CCSc1nccc(-c2ccc(-c3ccnc(SCCN(C)C)n3)s2)n1
TGI [1]: 17.3 µM | TGI [2]: 10 µM | TGI [3]: 28.3 µM | TGI [10]: 31.2 µM | TGI [4]: 31.4 µM | TGI [5]: 9.99 µM | TGI [7]: 18.1 µM | TGI [8]: 31.1 µM | TGI [9]: 29.7 µM

O=C(Nc1ccccc1C(=O)O)C(=Cc1ccccc1O)NC(=O)c1ccccc1
TGI [1]: > 100 µM | TGI [2]: > 100 µM | TGI [3]: > 100 µM | TGI [10]: > 100 µM | TGI [4]: > 100 µM | TGI [5]: > 100 µM | TGI [6]: > 100 µM | TGI [7]: > 100 µM | TGI [8]: > 100 µM | TGI [9]: > 100 µM

Cc1cccc(-c2cc(=O)c3cc(C)cnc3[nH]2)c1
TGI [1]: > 26.8 µM | TGI [2]: > 100 µM | TGI [3]: > 35.9 µM | TGI [5]: > 100 µM | TGI [6]: 1.7 µM | TGI [8]: > 100 µM | TGI [9]: > 100 µM

Cc1cc(N)c2cc(NC(=O)CCCCCCCCC(=O)Nc3ccc4nc(C)cc(N)c4c3)ccc2n1
TGI [1]: > 100 µM | TGI [2]: > 39.8 µM | TGI [3]: > 100 µM | TGI [10]: > 100 µM | TGI [4]: > 100 µM | TGI [5]: > 100 µM | TGI [6]: > 100 µM | TGI [7]: > 100 µM | TGI [8]: 96.9 µM | TGI [9]: > 100 µM

N#Cc1nc(C(=O)c2ccccc2)oc1N
TGI [1]: > 100 µM | TGI [11]: > 100 µM | TGI [2]: > 100 µM | TGI [4]: > 100 µM | TGI [7]: > 100 µM | TGI [8]: > 100 µM | TGI [9]: > 100 µM

CCCCCCCCCCCCCCC(=O)NC(CCCCN)C(=O)CN1CCCC1C(=O)NCC(=O)NC(Cc1ccccc1)C(=O)N1CCCC1C(=O)NC(CO)C(=O)NC(Cc1ccc(O)cc1)C(=O)NC(CCCCN)C(=O)NC(CC(C)C)C(=O)NC(CCCN=C(N)N)C(=O)N1CCCC1C(=O)NCC(N)=O (stereo not drawn) (Pentadecanoyl-[X12]GFPSYKLRPG-NH2; configuration not given here)
GI50 [2]: 16.3 µM | TGI [2]: 34.6 µM | GI50 [3]: 21.7 µM | TGI [3]: 49.6 µM | GI50 [10]: 28 µM | TGI [10]: 64.6 µM | GI50 [4]: 27.8 µM | TGI [4]: 64.4 µM | GI50 [5]: 26.1 µM | TGI [5]: 60.4 µM | GI50 [6]: 16.2 µM | TGI [6]: 50.8 µM | GI50 [7]: 29.9 µM | TGI [7]: 80.9 µM | GI50 [8]: 29.5 µM | TGI [8]: 52.1 µM

C[S+](C)C1(c2ccccc2)C(=O)c2ccccc2C1=O
TGI [1]: > 100 µM | TGI [2]: > 100 µM | TGI [3]: > 100 µM | TGI [10]: > 100 µM | TGI [4]: > 100 µM | TGI [5]: > 100 µM | TGI [6]: > 100 µM | TGI [7]: > 100 µM | TGI [8]: > 100 µM | TGI [9]: > 62.7 µM
